Tested on: EN1 and LMX1A
Experiment: qRT-PCR analysis of ventral midbrain markers EN1 and LMX1A in imDAP cells
Assay type: cell-based, human
Details: 3-step protocol
Method: (1) qRT-PCR • 1. For qRT-PCR analysis of mRNA gene expression, RNA should be harvested from at least 2×10^6 cells. • 2. Harvest cells, add 350 μl of buffer RLT+1% (vol/vol) β-mercaptoethanol to the well, transfer the lysate to a 1.5 ml tube, and put it immediately on ice. • 3. Perform RNA extraction using the Tiangen Kit (DP430) and following the manufacturer's protocol ‘Purification of total RNA from animal and human cells’. • 4. When the RNA extraction was completed, determine the RNA concentration using a Nanodrop instrument. • 5. Perform the first-strand cDNA synthesis reaction with 1 μg of RNA using the HiScript™ II Q RT SuperMIX for qPCR (+gDNA wiper) Kit (Vazyme, #R223-01) for RT-qPCR. Follow the manufacturer's ‘First-Strand cDNA Synthesis’ protocol. This reaction would yield a 20 μl product. • 6. Dilute 10 μl cDNA product in 80 μl of nuclease-free water. • 7. Pipette the diluted cDNA product (1 μl), Sybr green master mix (5 μl, Transgen, #AQ131) and 0.95 μM reverse/forward primer mix (4 μl) into a 384-well PCR plate in triplicate, either manually or using an automated pipetting robot. The complete primer panel included the target genes and the housekeeping gene (RPL13A). In the analysis, the expression level of gene was determined by using a sample of undifferentiated hPSCs as control. • 8. Analyze the samples by running a quantitative PCR on the LightCycler 480 instrument using a 40x cycle two-step protocol with a 60° C., 60 sec annealing/elongation step and a 95° C., 30 sec denaturation step. The average CT value from the three technical replicates was used for calculation of relative gene expression using the ΔΔCT method. […]
On Day-1, EB formation (Stage 1) was carried out by dissociating hiPSCs (Nuwacell) to form a single-cell suspension and resuspending it in Epic medium (Nuwacell, #RP01001) containing 10 μM Blebbistatin (MCE, #HY-13441) in T25 flasks on a belly dancer and culturing the cells overnight. […] On Day 16 (at the end of S2-2), imDAP cells were collected and analyzed by qRT-PCR assay for ventral midbrain marker EN1 and LMX1A. […]

Compound: Cc1cnc(-c2cnc(NCCNc3ccc(C#N)cn3)nc2-c2ccc(Cl)cc2Cl)[nH]1 [CHIR, CHIR99021]
- expression levels of EN1 and LMX1A (CHIR 5 μM and 7.5 μM compared to 10 μM): better results
- expression levels of EN1 and LMX1A (CHIR 7.5 μM Stage 2-2 from Day 3 to Day 6 versus Day 3 to Day 10): comparable
- expression levels of EN1 and LMX1A (high CHIR 5, 7.5 or 10 μM Day 3 to Day 10, relative to the 2-step protocol): increased

Source: patent US20250136934A1, “PRODUCTION OF INDUCED MIDBRAIN DOPAMINERGIC PROGENITOR CELLS FROM PLURIPOTENT STEM CELLS” (NUWACELL BIOTECHNOLOGIES CO., LTD., priority 2023, published 2025)
